Converted amounts (≈) assume the structure as drawn. Bridge positions count the residues as written; N and C are the ends. Square brackets hold non-standard residues; d marks the D form. Peptide text beside a SMILES is read from it. * marks the point of attachment. ξ: configuration not given here. dBip = N[C@H](Cc1ccc(-c2ccccc2)cc1)C(=O)O; dPhe(4-Br) = N[C@H](Cc1ccc(Br)cc1)C(=O)O; Gly(octyl) = CCCCCCCC[C@H](N)C(=O)O; Octanoyl(6-Me) = CCC(C)CCCCC(=O)*; Thr(3ξ) = CC(O)[C@H](N)C(=O)O; X1 = CC(C)CN1CCNC[C@H]1C(=O)*; Octanoyl = CCCCCCCC(=O)*; Dab = NCC[C@H](N)C(=O)O; X6 = CCCCCCC(CCN)C(=O)*; Dap = NC[C@H](N)C(=O)O; X18 = CCCCC(CCN)C(=O)*
Assays:
Format in all cases: cell-based
Klebsiella pneumoniae = test system: Klebsiella pneumoniae
Method in brief: (§1)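 Values are minimum inhibitory concentrations in μg/mL, measured across a panel of up to nine strains of each Gram-negative pathogen, some Polymyxin-elevated or resistant.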

Pseudomonas aeruginosa = test system: Pseudomonas aeruginosa
Method in brief: as §1

Escherichia coli = test system: Escherichia coli
Method in brief: as §1

Acinetobacter baumannii = test system: Acinetobacter baumannii
Method in brief: as §1

[1] = test system: Escherichia coli, Pseudomonas aeruginosa, Klebsiella pneumoniae and Acinetobacter baumannii; assay: Susceptibility testing, comparisons in words across the Gram negative pathogens; settings: for activity against polymyxin resistant strains: versus comparator compound
Protocol: To evaluate the potency and spectrum of the compounds, susceptibility testing was performed against up to nine strains of each of the Gram negative pathogens, Escherichia coli, Pseudomonas aeruginosa, Klebsiella pneumoniae and Acinetobacter baumannii.

HK-2 cells = test system: HK-2 cells
Text: Values are reported relative to Polymyxin B.

| SMILES | MIC K. pneumoniae 063 (Klebsiella pneumoniae) [µg/mL] | MIC K. pneumoniae 064 (Klebsiella pneumoniae) [µg/mL] | MIC K. pneumoniae 065 (Klebsiella pneumoniae) [µg/mL] | MIC K. pneumoniae 066 (Klebsiella pneumoniae) [µg/mL] | MIC K. pneumoniae 067 (Klebsiella pneumoniae) [µg/mL] | MIC K. pneumoniae ATCC 4352 (Klebsiella pneumoniae) [µg/mL] | MIC P. aeruginosa 068 (Pseudomonas aeruginosa) [µg/mL] | MIC P. aeruginosa 070 (Pseudomonas aeruginosa) [µg/mL] | MIC P. aeruginosa ATCC 27853 (Pseudomonas aeruginosa) [µg/mL] | MIC E. coli 058 (Escherichia coli) [µg/mL] | MIC E. coli 059 (Escherichia coli) [µg/mL] | MIC E. coli 060 (Escherichia coli) [µg/mL] | MIC E. coli 061 (Escherichia coli) [µg/mL] | MIC E. coli ATCC 25922 (Escherichia coli) [µg/mL] | MIC A. baumanii 053 (Acinetobacter baumannii) [µg/mL] | MIC A. baumanii 056 (Acinetobacter baumannii) [µg/mL] | MIC A. baumanii ATCC BAA-747 (Acinetobacter baumannii) [µg/mL] | activity against polymyxin resistant strains [1] | HK-2 IC50 (HK-2 cells) [µg/mL] | MIC K. pneumoniae ATCC 13882 (Klebsiella pneumoniae) [µg/mL] | other results |
| --- | --- | --- | --- | --- | --- | --- | --- | --- | --- | --- | --- | --- | --- | --- | --- | --- | --- | --- | --- | --- | --- |
| CC(C)CC1CNCC(C(=O)N[C@H](C(=O)N[C@@H](CN)C(=O)N[C@H]2CCNC(=O)[C@H]([C@@H](C)O)NC(=O)[C@H](CCN)NC(=O)[C@H](CCN)NC(=O)[C@H](CC(C)C)NC(=O)[C@@H](Cc3ccc(-c4ccccc4)cc3)NC(=O)[C@H](CCN)NC2=O)C(C)O)C1 (single isomer, unassigned; isomer 2) [Example 4, (trans-5-(isobutyl-piperidine)-3-carbonyl L-Thr-L-Dap-polymyxin [D-(4-phenyl)Phe]-6]heptapeptide. Isomer 2] | 4 (≈ 3.35 µM) | 2 (≈ 1.68 µM) | 1 (≈ 0.839 µM) | 1 (≈ 0.839 µM) | 8 (≈ 6.71 µM) | 0.5 (≈ 0.419 µM) | 1 (≈ 0.839 µM) | 2 (≈ 1.68 µM) | 1 (≈ 0.839 µM) | 0.5 (≈ 0.419 µM) | 0.5 (≈ 0.419 µM) | 0.5 (≈ 0.419 µM) | 2 (≈ 1.68 µM) | 0.5 (≈ 0.419 µM) | 2 (≈ 1.68 µM) | 0.5 (≈ 0.419 µM) | 0.5 (≈ 0.419 µM) | significantly improves of activity against resistant strains | 32 |  |  |
| CCC(C)CCCCC(=O)N[C@@H](CCN)C(=O)N[C@H](C(=O)N[C@@H](CCN)C(=O)N[C@H]1CCNC(=O)[C@H]([C@@H](C)O)NC(=O)[C@H](CCN)NC(=O)[C@H](CCN)NC(=O)[C@H](CC(C)C)NC(=O)[C@@H](Cc2ccc(Br)cc2)NC(=O)[C@H](CCN)NC1=O)C(C)O (stereo partly drawn) [Example 2, Polymyxin B[D-(4-bromoPhe)]-6]] ({Octanoyl(6-Me)}-[Dab][Thr(3ξ)][Dab][Dab][Dab][dPhe(4-Br)]L[Dab][Dab]T; lactam 4-C) | 16 (≈ 12.5 µM) | 2 (≈ 1.56 µM) | 0.5 (≈ 0.39 µM) | 4 (≈ 3.12 µM) | 16 (≈ 12.5 µM) | 1 (≈ 0.78 µM) | 2 (≈ 1.56 µM) | 4 (≈ 3.12 µM) | 1 (≈ 0.78 µM) | 2 (≈ 1.56 µM) | 1 (≈ 0.78 µM) | 2 (≈ 1.56 µM) | 4 (≈ 3.12 µM) | 2 (≈ 1.56 µM) | 16 (≈ 12.5 µM) | 4 (≈ 3.12 µM) | 2 (≈ 1.56 µM) | enhances activity against polymyxin resistant strains |  |  | MIC K. pneumoniae 062 (Klebsiella pneumoniae): 8 µg/mL (≈ 6.24 µM) |
| CC(C)C[C@@H]1NC(=O)[C@@H](Cc2ccc(-c3ccccc3)cc2)NC(=O)[C@H](CCN)NC(=O)[C@@H](NC(=O)[C@H](CN)NC(=O)[C@@H](NC(=O)[C@@H]2CNCCN2CC(C)C)C(C)O)CCNC(=O)[C@H]([C@@H](C)O)NC(=O)[C@H](CCN)NC(=O)[C@H](CCN)NC1=O (stereo partly shown) [Example 5] (X1-[Thr(3ξ)][Dap][Dab][Dab][dBip]L[Dab][Dab]T; lactam 3-C) | 16 (≈ 13.4 µM) | 4 (≈ 3.35 µM) | 0.5 (≈ 0.419 µM) | 8 (≈ 6.7 µM) | 32 (≈ 26.8 µM) | 0.25 (≈ 0.209 µM) | 4 (≈ 3.35 µM) | 8 (≈ 6.7 µM) | 0.5 (≈ 0.419 µM) | 1 (≈ 0.838 µM) | 1 (≈ 0.838 µM) | 2 (≈ 1.68 µM) | 8 (≈ 6.7 µM) | 0.06 (≈ 0.0503 µM) | 32 (≈ 26.8 µM) | 4 (≈ 3.35 µM) | 0.125 (≈ 0.105 µM) | significantly improves of activity against resistant strains | 36 |  |  |
| CCCCC(CCN)C(=O)N[C@H](C(=O)N[C@@H](CCN)C(=O)N[C@H]1CCNC(=O)[C@H]([C@@H](C)O)NC(=O)[C@H](CCN)NC(=O)[C@H](CCN)NC(=O)[C@H](CC(C)C)NC(=O)[C@@H](Cc2ccccc2)NC(=O)[C@H](CCN)NC1=O)C(C)O (stereo partly shown) [Example C4, 2-(2-Aminoethyl) hexanoyl polymyxin B nonapeptide, reference compound] (X18-[Thr(3ξ)][Dab][Dab][Dab][dF]L[Dab][Dab]T; lactam 3-C) |  |  | >64 |  |  | 0.25 (≈ 0.226 µM) |  |  | 1 (≈ 0.905 µM) | >64 |  |  |  | 1.0 (≈ 0.905 µM) |  |  | 1 (≈ 0.905 µM) |  |  | 1 (≈ 0.905 µM) | MIC P. aeruginosa CCUG 59347 (Pseudomonas aeruginosa): 2 µg/mL (≈ 1.81 µM); MIC A. baumanii NCTC 13424 (Acinetobacter baumannii): 0.5 µg/mL (≈ 0.453 µM); activity [1]: only moderate activity |
| CCCCCCC(CCN)C(=O)N[C@H](C(=O)N[C@@H](CCN)C(=O)N[C@H]1CCNC(=O)[C@H]([C@@H](C)O)NC(=O)[C@H](CCN)NC(=O)[C@H](CCN)NC(=O)[C@H](CC(C)C)NC(=O)[C@@H](Cc2ccccc2)NC(=O)[C@H](CCN)NC1=O)C(C)O (stereo partly shown) [Example C5, 2-(2-Aminoethyl) octanoyl polymyxin B nonapeptide, reference compound] (X6-[Thr(3ξ)][Dab][Dab][Dab][dF]L[Dab][Dab]T; lactam 3-C) | 8 (≈ 7.06 µM) |  | 1 (≈ 0.883 µM) |  |  | 0.06 (≈ 0.053 µM) | 8 (≈ 7.06 µM) | 32 (≈ 28.3 µM) | 0.125 (≈ 0.11 µM) | 2 (≈ 1.77 µM) |  |  | 16 (≈ 14.1 µM) | 0.06 (≈ 0.053 µM) | >64 | 16 (≈ 14.1 µM) | 0.125 (≈ 0.11 µM) |  | 29 | 0.125 (≈ 0.11 µM) | MIC P. aeruginosa CCUG 59347 (Pseudomonas aeruginosa): 0.5 µg/mL (≈ 0.442 µM); MIC E. coli NCTC 9001 (Escherichia coli): 0.03 µg/mL (≈ 0.0265 µM); MIC A. baumanii NCTC 13424 (Acinetobacter baumannii): 0.25 µg/mL (≈ 0.221 µM) |
| CCCCCCCC[C@@H]1NC(=O)[C@@H](Cc2ccccc2)NC(=O)[C@H](CCN)NC(=O)[C@@H](NC(=O)[C@H](CCN)NC(=O)[C@@H](NC(=O)[C@H](CCN)NC(=O)CCCCCCC)[C@@H](C)O)CCNC(=O)[C@H]([C@@H](C)O)NC(=O)[C@H](CCN)NC(=O)[C@H](CCN)NC1=O [Example C7, octanoyl-Dab-Thr-Dab-Cy[Dab-Dab-D-Phe-L-OctGly-Dab-Dab-Thr], reference compound] (Octanoyl-[Dab]T[Dab][Dab][Dab][dF][Gly(octyl)][Dab][Dab]T; lactam 4-C) |  |  | 2 (≈ 1.61 µM) |  |  |  |  |  | 0.5 (≈ 0.401 µM) | 2 (≈ 1.61 µM) |  |  |  | 1 (≈ 0.803 µM) |  |  | 1 (≈ 0.803 µM) |  |  | 1 (≈ 0.803 µM) | MIC K. pneumoniae CA062 (Klebsiella pneumoniae): 16 µg/mL (≈ 12.8 µM); MIC K. pneumoniae CA063 (Klebsiella pneumoniae): 8 µg/mL (≈ 6.42 µM); MIC K. pneumoniae CA064 (Klebsiella pneumoniae): 4 µg/mL (≈ 3.21 µM); MIC K. pneumoniae CA066 (Klebsiella pneumoniae): 2 µg/mL (≈ 1.61 µM); MIC K. pneumoniae CA067 (Klebsiella pneumoniae): 64 µg/mL (≈ 51.4 µM); MIC K. pneumoniae N655 (Klebsiella pneumoniae): 8 µg/mL (≈ 6.42 µM); MIC P. aeruginosa CA068 (Pseudomonas aeruginosa): 4 µg/mL (≈ 3.21 µM); MIC P. aeruginosa CA070 (Pseudomonas aeruginosa): 2 µg/mL (≈ 1.61 µM); MIC P. aeruginosa CCUG 59347 (Pseudomonas aeruginosa): 2 µg/mL (≈ 1.61 µM); MIC E. coli CA059 (Escherichia coli): 2 µg/mL (≈ 1.61 µM); MIC E. coli CA060 (Escherichia coli): 2 µg/mL (≈ 1.61 µM); MIC E. coli CA061 (Escherichia coli): 4 µg/mL (≈ 3.21 µM); MIC A. baumanii NCTC 13424 (Acinetobacter baumannii): 1 µg/mL (≈ 0.803 µM); MIC A. baumannii CA053 (Acinetobacter baumannii): 4 µg/mL (≈ 3.21 µM); MIC A. baumannii CA056 (Acinetobacter baumannii): 4 µg/mL (≈ 3.21 µM); activity against polymyxin-susceptible strains ([1]; versus compounds in a more negative A Log P range): less active against polymyxin-susceptible strains |
